Test results from PubChem BioAssay (NCI).
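GI50 marks 50% less growth. TGI denotes the concentration required for complete inhibition of growth.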

Legend:
Experiment in all cases: growth of human tumour cells (NCI), 384-well format
[1] = system: TK-10 renal
[2] = system: HT29 colon
[3] = system: SNB-75 CNS
[4] = system: DU-145 prostate
[5] = system: BT-549 breast
[6] = system: MCF7 breast
[7] = system: SK-MEL-28 melanoma
[8] = system: SW-620 colon
[9] = system: HS 578T breast
[10] = system: RXF 393 renal
[11] = system: MALME-3M melanoma
[12] = system: KM12 colon
[13] = system: CAKI-1 renal
[14] = system: SNB-19 CNS
[15] = system: NCI-H460 NSCLC
[16] = system: NCI-H23 lung
[17] = system: COLO 205 colon
[18] = system: SN12C renal
[19] = system: U251 glioblastoma
[20] = system: 786-0 renal
[21] = system: A498 renal
[22] = system: HCC-2998 colon
[23] = system: M14 melanoma
[24] = system: NCI-H522 lung
[25] = system: HL-60(TB) leukemia
[26] = system: A549 NSCLC
[27] = system: SK-MEL-5 melanoma
[28] = system: EKVX NSCLC
[29] = system: OVCAR-8 ovarian
[30] = system: OVCAR-3 ovarian
[31] = system: T-47D breast
[32] = system: PC-3 prostate
[33] = system: LOX IMVI melanoma
[34] = system: MDA-MB-435 melanoma
[35] = system: NCI-H322M lung
[36] = system: NCI/ADR-RES ovarian
[37] = system: ACHN renal
[38] = system: MDA-MB-231 breast
[39] = system: OVCAR-5 ovarian
[40] = system: SF-539 CNS
[41] = system: HCT-15 colon
[42] = system: NCI-H226 lung
[43] = system: SK-OV-3 ovarian
[44] = system: RPMI-8226 leukemia
[45] = system: SF-268 CNS
[46] = system: HOP-62 NSCLC
[47] = system: UACC-62 melanoma
[48] = system: HOP-92 NSCLC
[49] = system: MDA-MB-468 breast
[50] = system: UACC-257 melanoma
[51] = system: UO-31 renal
[52] = system: IGROV1 ovarian
[53] = system: MOLT-4 leukemia
[54] = system: HCT-116 colon
[55] = system: SF-295 CNS
[56] = system: OVCAR-4 ovarian
[57] = system: SR leukemia

SMILES: C[C@]12CC[C@H](O)CC1=CC[C@@H]1[C@@H]2CC[C@]2(C)C(c3cccnc3)=CC[C@@H]12
- GI50 [1]: > 100 µM
- TGI [1]: > 100 µM
- GI50 [2]: 15.2 µM
- TGI [2]: 96.1 µM
- GI50 [3]: > 100 µM
- TGI [3]: > 100 µM
- GI50 [4]: > 100 µM
- TGI [4]: > 100 µM
- GI50 [5]: 9.12 µM
- TGI [5]: 69.7 µM
- GI50 [6]: > 100 µM
- TGI [6]: > 100 µM
- GI50 [7]: > 100 µM
- TGI [7]: > 100 µM
- GI50 [8]: > 100 µM
- TGI [8]: > 100 µM
- GI50 [9]: 9.52 µM
- TGI [9]: 49 µM
- GI50 [10]: 1.83 µM
- TGI [10]: 4.72 µM
- GI50 [11]: 3.99 µM
- TGI [11]: 61.5 µM
- GI50 [12]: 38.3 µM
- TGI [12]: > 100 µM
- GI50 [13]: 52.8 µM
- TGI [13]: > 100 µM
- GI50 [14]: > 100 µM
- TGI [14]: > 100 µM
- GI50 [15]: > 100 µM
- TGI [15]: > 100 µM
- GI50 [16]: > 100 µM
- TGI [16]: > 100 µM
- GI50 [17]: 42.1 µM
- TGI [17]: > 100 µM
- GI50 [18]: > 100 µM
- TGI [18]: > 100 µM
- GI50 [19]: > 100 µM
- TGI [19]: > 100 µM
- GI50 [20]: 1.93 µM
- TGI [20]: 3.88 µM
- GI50 [21]: 15.8 µM
- TGI [21]: 45.1 µM
- GI50 [22]: > 100 µM
- TGI [22]: > 100 µM
- GI50 [23]: > 100 µM
- TGI [23]: > 100 µM
- GI50 [24]: > 100 µM
- TGI [24]: > 100 µM
- GI50 [25]: 4.06 µM
- TGI [25]: 10.1 µM
- GI50 [26]: 63.9 µM
- TGI [26]: > 100 µM
- GI50 [27]: > 100 µM
- TGI [27]: > 100 µM
- GI50 [28]: 25.9 µM
- TGI [28]: > 100 µM
- GI50 [29]: > 100 µM
- TGI [29]: > 100 µM
- GI50 [30]: > 100 µM
- TGI [30]: > 100 µM
- GI50 [31]: > 100 µM
- TGI [31]: > 100 µM
- GI50 [32]: > 100 µM
- TGI [32]: > 100 µM
- GI50 [33]: 4.93 µM
- TGI [33]: > 100 µM
- GI50 [34]: > 100 µM
- TGI [34]: > 100 µM
- GI50 [35]: > 100 µM
- TGI [35]: > 100 µM
- GI50 [36]: > 100 µM
- TGI [36]: > 100 µM
- GI50 [37]: 22.9 µM
- TGI [37]: > 100 µM
- GI50 [38]: > 100 µM
- TGI [38]: > 100 µM
- GI50 [39]: > 100 µM
- TGI [39]: > 100 µM
- GI50 [40]: > 100 µM
- TGI [40]: > 100 µM
- GI50 [41]: 9.74 µM
- TGI [41]: > 100 µM
- GI50 [42]: 4.86 µM
- TGI [42]: > 100 µM
- GI50 [43]: > 100 µM
- TGI [43]: > 100 µM
- GI50 [44]: 2.36 µM
- TGI [44]: 4.65 µM
- GI50 [45]: > 100 µM
- TGI [45]: > 100 µM
- GI50 [46]: 20 µM
- TGI [46]: > 100 µM
- GI50 [47]: > 100 µM
- TGI [47]: > 100 µM
- GI50 [48]: 25.2 µM
- TGI [48]: > 100 µM
- GI50 [49]: 5.46 µM
- TGI [49]: > 100 µM
- GI50 [50]: > 100 µM
- TGI [50]: > 100 µM
- GI50 [51]: > 100 µM
- TGI [51]: > 100 µM
- GI50 [52]: 60.4 µM
- TGI [52]: > 100 µM
- GI50 [53]: 2.99 µM
- TGI [53]: 25 µM
- GI50 [54]: 57 µM
- TGI [54]: > 100 µM

SMILES: O=C(O)CCCCC(CCSCc1ccccc1)SCc1ccccc1 (stereo unspecified)
- GI50 [1]: 50.2 µM
- TGI [1]: > 100 µM
- GI50 [2]: 53.7 µM
- TGI [2]: > 100 µM
- GI50 [3]: > 100 µM
- TGI [3]: > 100 µM
- GI50 [4]: 64 µM
- TGI [4]: > 100 µM
- GI50 [5]: > 100 µM
- TGI [5]: > 100 µM
- GI50 [6]: 66.9 µM
- TGI [6]: > 100 µM
- GI50 [7]: > 100 µM
- TGI [7]: > 100 µM
- GI50 [9]: > 100 µM
- TGI [9]: > 100 µM
- GI50 [10]: > 100 µM
- TGI [10]: > 100 µM
- GI50 [11]: > 100 µM
- TGI [11]: > 100 µM
- GI50 [12]: 45.4 µM
- TGI [12]: > 100 µM
- GI50 [13]: > 100 µM
- TGI [13]: > 100 µM
- GI50 [14]: 94 µM
- TGI [14]: > 100 µM
- GI50 [15]: 34.2 µM
- TGI [15]: > 100 µM
- GI50 [16]: 50.5 µM
- TGI [16]: > 100 µM
- GI50 [17]: > 100 µM
- TGI [17]: > 100 µM
- GI50 [18]: > 100 µM
- TGI [18]: > 100 µM
- GI50 [19]: 45.3 µM
- TGI [19]: > 100 µM
- GI50 [55]: 39.3 µM
- TGI [55]: > 100 µM
- GI50 [21]: 42.3 µM
- TGI [21]: > 100 µM
- GI50 [22]: 47.5 µM
- TGI [22]: > 100 µM
- GI50 [23]: > 100 µM
- TGI [23]: > 100 µM
- GI50 [24]: 27.6 µM
- TGI [24]: 73.3 µM
- GI50 [25]: 58.8 µM
- TGI [25]: > 100 µM
- GI50 [26]: 44 µM
- TGI [26]: > 100 µM
- GI50 [27]: 33.4 µM
- TGI [27]: > 100 µM
- GI50 [28]: 37.3 µM
- TGI [28]: > 100 µM
- GI50 [29]: > 100 µM
- TGI [29]: > 100 µM
- GI50 [30]: 45.2 µM
- TGI [30]: > 100 µM
- GI50 [31]: 68.7 µM
- TGI [31]: > 100 µM
- GI50 [32]: 59.6 µM
- TGI [32]: > 100 µM
- GI50 [33]: > 100 µM
- TGI [33]: > 100 µM
- GI50 [34]: > 100 µM
- TGI [34]: > 100 µM
- GI50 [35]: 90.6 µM
- TGI [35]: > 100 µM
- GI50 [36]: > 100 µM
- TGI [36]: > 100 µM
- GI50 [37]: > 100 µM
- TGI [37]: > 100 µM
- GI50 [38]: > 100 µM
- TGI [38]: > 100 µM
- GI50 [56]: 59 µM
- TGI [56]: > 100 µM
- GI50 [39]: > 100 µM
- TGI [39]: > 100 µM
- GI50 [40]: > 100 µM
- TGI [40]: > 100 µM
- GI50 [41]: 45.1 µM
- TGI [41]: > 100 µM
- GI50 [42]: 97.6 µM
- TGI [42]: > 100 µM
- GI50 [43]: > 100 µM
- TGI [43]: > 100 µM
- GI50 [44]: 33.7 µM
- TGI [44]: 84.4 µM
- GI50 [45]: > 100 µM
- TGI [45]: > 100 µM
- GI50 [46]: 50.4 µM
- TGI [46]: > 100 µM
- GI50 [47]: 75.7 µM
- TGI [47]: > 100 µM
- GI50 [48]: > 100 µM
- TGI [48]: > 100 µM
- GI50 [49]: 39.7 µM
- TGI [49]: > 100 µM
- GI50 [50]: 62.2 µM
- TGI [50]: > 100 µM
- GI50 [57]: 22.6 µM
- TGI [57]: 67.1 µM
- GI50 [52]: 68.3 µM
- TGI [52]: > 100 µM
- GI50 [53]: > 100 µM
- TGI [53]: > 100 µM
- GI50 [54]: 47.5 µM
- TGI [54]: > 100 µM
